Experimental data reported in ChEMBL document CHEMBL4024759, “One-Bead-Two-Compound Thioether Bridged Macrocyclic γ-AApeptide Screening Library against EphA2” (J Med Chem, 2017).

Tests used:
[1] = molecular target: RAC-alpha serine/threonine-protein kinase (Homo sapiens, UniProt P31749); assay: Binding affinity to AKT1 (unknown origin)
[2] = molecular target: Ephrin type-A receptor 2 (Homo sapiens, UniProt P29317); assay: Binding affinity to recombinant human GST-tagged EphA2 cytoplasmic domain (560 to 976 residues) expressed in baculovirus expression system by fluorescence polarization assay
Sequence of Ephrin type-A receptor 2 (P29317 whole entry, the tested form may be a part): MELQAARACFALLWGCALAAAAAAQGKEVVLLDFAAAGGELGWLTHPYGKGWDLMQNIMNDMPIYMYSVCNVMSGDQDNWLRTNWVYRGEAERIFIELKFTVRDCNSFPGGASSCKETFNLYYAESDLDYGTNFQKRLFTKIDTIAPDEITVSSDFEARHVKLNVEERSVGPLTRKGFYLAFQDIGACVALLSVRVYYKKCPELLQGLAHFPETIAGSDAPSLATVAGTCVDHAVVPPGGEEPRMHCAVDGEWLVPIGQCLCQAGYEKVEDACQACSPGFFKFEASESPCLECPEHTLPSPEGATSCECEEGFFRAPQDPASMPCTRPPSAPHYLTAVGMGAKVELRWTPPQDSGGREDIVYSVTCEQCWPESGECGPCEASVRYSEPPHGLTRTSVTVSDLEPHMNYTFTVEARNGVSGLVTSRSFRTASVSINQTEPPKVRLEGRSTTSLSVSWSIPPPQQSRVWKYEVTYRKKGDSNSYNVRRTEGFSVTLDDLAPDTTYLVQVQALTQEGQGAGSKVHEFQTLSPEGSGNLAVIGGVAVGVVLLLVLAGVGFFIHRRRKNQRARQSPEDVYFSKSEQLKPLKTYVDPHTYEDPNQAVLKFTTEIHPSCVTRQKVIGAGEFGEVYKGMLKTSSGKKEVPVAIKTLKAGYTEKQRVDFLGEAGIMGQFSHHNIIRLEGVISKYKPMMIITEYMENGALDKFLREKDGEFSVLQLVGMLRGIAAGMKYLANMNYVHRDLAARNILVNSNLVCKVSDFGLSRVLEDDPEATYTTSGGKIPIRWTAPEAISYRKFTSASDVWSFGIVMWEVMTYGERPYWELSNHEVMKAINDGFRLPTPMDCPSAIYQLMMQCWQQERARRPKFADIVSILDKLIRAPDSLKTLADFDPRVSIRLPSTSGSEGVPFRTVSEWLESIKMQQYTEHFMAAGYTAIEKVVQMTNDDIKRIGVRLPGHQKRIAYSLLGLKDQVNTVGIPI

[3] = molecular target: T1, NF-kappa-B inhibitor alpha (Homo sapiens, UniProt P25963); assay: Binding affinity to NFKBIA (unknown origin)
T1 sequence (P25963 whole entry): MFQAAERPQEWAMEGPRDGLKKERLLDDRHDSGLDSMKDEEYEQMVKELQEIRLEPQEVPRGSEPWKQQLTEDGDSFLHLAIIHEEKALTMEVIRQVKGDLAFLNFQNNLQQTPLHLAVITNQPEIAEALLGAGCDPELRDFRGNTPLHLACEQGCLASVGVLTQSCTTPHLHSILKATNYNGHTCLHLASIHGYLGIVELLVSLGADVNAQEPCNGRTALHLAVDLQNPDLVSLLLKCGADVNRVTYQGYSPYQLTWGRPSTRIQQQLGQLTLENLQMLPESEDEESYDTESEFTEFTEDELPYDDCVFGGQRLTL

[4] = Binding affinity to GST (unknown origin) by fluorescence polarization assay; design: species or system Homo sapiens
[5] = organism: Homo sapiens; assay: Selectivity ratio of Kd for GST (unknown origin) to Kd for recombinant human GST-tagged EphA2 cytoplasmic domain (560 to 976 residues) expressed in baculovirus expression system
[6] = system: C13; assay: Antimigratory activity in human C13 cells after 24 hrs by scratch-wound motility assay; type: functional, cell-based
[7] = system: C13; assay: Antimigratory activity in human C13 cells assessed as delay in wound closure at 15 uM after 24 hrs by scratch-wound motility assay; type: functional
[8] = system: C13; assay: Antimigratory activity in human C13 cells at 10 uM by scratch-wound motility assay; type: functional, cell-based; conditions: TDE = time-dependent effect

Sequence of RAC-alpha serine/threonine-protein kinase (P31749 whole entry, the tested form may be a part): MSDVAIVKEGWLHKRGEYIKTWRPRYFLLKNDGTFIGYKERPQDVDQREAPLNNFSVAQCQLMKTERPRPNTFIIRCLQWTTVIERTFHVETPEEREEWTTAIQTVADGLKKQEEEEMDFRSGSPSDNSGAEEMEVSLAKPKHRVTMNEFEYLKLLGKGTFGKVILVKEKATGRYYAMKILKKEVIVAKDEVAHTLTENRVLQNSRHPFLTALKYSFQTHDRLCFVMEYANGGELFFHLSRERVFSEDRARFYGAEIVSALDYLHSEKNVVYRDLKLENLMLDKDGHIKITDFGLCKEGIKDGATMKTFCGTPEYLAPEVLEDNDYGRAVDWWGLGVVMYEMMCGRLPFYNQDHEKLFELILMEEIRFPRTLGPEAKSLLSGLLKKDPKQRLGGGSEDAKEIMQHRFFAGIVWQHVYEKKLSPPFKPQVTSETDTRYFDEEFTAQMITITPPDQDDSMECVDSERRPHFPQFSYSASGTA

| SMILES | Kd [1] | Kd [2] | Kd [3] | Kd [4] | Selectivity ratio [5] | Activity [6] | Activity [7] | Activity [8] |
| --- | --- | --- | --- | --- | --- | --- | --- | --- |
| NC(=O)[C@H](CCCCNC(=S)Nc1ccc(-c2c3ccc(=O)cc-3oc3cc(O)ccc23)c(C(=O)O)c1)NC(=O)CN1C[C@H](Cc2ccccc2)NC(=O)CN(C(=O)CCC(=O)O)C[C@H](CCC(=O)O)NC(=O)CN(C(=O)Cc2ccc3c(c2)OCO3)C[C@H](CCC(=O)O)NC(=O)CN(C(=O)CCC2CCCCC2)C[C@H](Cc2ccccc2)NC(=O)c2ccc(cc2)CSCCC1=O | 3620 nM | 81 nM | 741 nM | 14200 nM | 170 | – | – | – |
| NC(=O)CN1C[C@H](Cc2ccccc2)NC(=O)CN(C(=O)CCC(=O)O)C[C@H](CCC(=O)O)NC(=O)CN(C(=O)Cc2ccc3c(c2)OCO3)C[C@H](CCC(=O)O)NC(=O)CN(C(=O)CCC2CCCCC2)C[C@H](Cc2ccccc2)NC(=O)c2ccc(cc2)CSCCC1=O | – | – | – | – | – | Dose-dependent effect | 70% | Tde |
